According to patent publication US20210337789A1, “Derivatives of m-Guaiacol, Their Preparation and Their Uses” (Universite de Caen Normandie, priority 2018, published 2021):

What was measured:
[1] = test system: Escherichia coli; assay: Bacterial growth screening on wild-type phenotype strain, E. coli; assay type: cell-based
Experimental: (§1) The bacterial growth is evaluated by measuring the optical density (DO) at 600 nm using NanoDrop.
(§2) This ratio permits a classification of the molecules in 4 effect levels: • 0=no effect observed; • 1=effect observed only when the molecule is tested pure; • 2=effect observed at several concentrations, but which gradually decreases the dilutions; • 3=strong effect observed at each concentration of molecule tested.
(§3) A screening of molecules of the invention on several wild-type phenotype strains has been carried out.
(§4) The strains initially selected are: • Gram+: Streptococcus equi subsp zooepidemicus and Staphylococcus aureus • Gram−: Escherichia coli, Klebsiella pneumoniae and Stenotrophomonas maltophila.

[2] = test system: Klebsiella pneumoniae; assay: Bacterial growth screening on wild-type phenotype strain, K. pneumoniae; assay type: cell-based
Experimental: as §1, §2, §3, §4

[3] = test system: Micrococcus luteus reference strain; assay: Bacterial growth (optical density at 600 nm) on Micrococcus luteus reference strain; assay type: cell-based; design: key: 0 = no effect, 1 = pure only, 2 = several concentrations, 3 = strong at all; details: in DMSO diluted in PBS, compared with triclosan
Experimental: as §1, §2
The molecules are put in a solution in DMSO and diluted in PBS.

[4] = test system: E. coli strains presenting high levels of resistance; assay: Bacterial growth on E. coli strains presenting high levels of resistance; assay type: cell-based, Escherichia coli; design: key to Effects (0 < 1 < 2 < 3): 0 = no effect; 1 = pure only; 2 = several concs; 3 = strong at each; key to Δ DO: change in optical density measured at 600 nm; details: for Effects (0 < 1 < 2 < 3): molecules at 1, 0.5 and 0.1 mg/ml, triclosan at 0.1 mg/ml
Experimental: as §1, §2
(§5) Compounds of the invention were tested on 4 strains of E. coli, 3 strains of K. pneumoniae and 4 strains of S. aureus with the resistance profiles below.

[5] = test system: Stenotrophomonas maltophila; assay: Bacterial growth screening on wild-type phenotype strain, S. maltophila; assay type: cell-based
Experimental: as §1, §2, §3, §4

[6] = test system: Streptococcus equi subsp zooepidemicus; assay: Bacterial growth screening on wild-type phenotype strain, S. zooepidemicus; assay type: cell-based
Experimental: as §1, §2, §3, §4

[7] = test system: KB cells (epidermoid carcinoma); assay: In vitro cytotoxicity, cell proliferation test (MTS) on KB cells; assay type: cell-based; details: Homo sapiens, KB cells, triplicate, 72 hours of exposure, with respect to DMSO control, read-out: percentage of inhibition of cell growth
Experimental: The human cell strain KB (epidermoid carcinoma) was obtained from the NCI (National Cancer Institute) and cultivated in the D-MEM medium added with 10% of foetal bovine serum (Invitrogen) in the presence of penicillin, streptomycin and fungizone in flasks of […] under CO2 at 5%. The cells were deposited on tissue culture microplates with 96 wells and a density of 650 cells/well in 200 μl of medium and treated 24 hours later with compounds of the invention dissolved in DMSO at concentrations going from 0.5 nM to 10 μM using a Biomek 3000 (Beckman-Coulter) automaton. The controls received the same volume of DMSO (1% of final volume). After 72 hours of exposure, the MTS reagent (Celltiter 96Aqueous One solution, Promega) was added and incubated for 3 hours at 37° C.: the absorbance was measured at 490 nm and the results of inhibition of the cell proliferation were calculated according to the ratio [(1−(OD490treated/OD490control))×100].
Results: Cytotoxicity at 10^−5 and 10^−6M on Triplicate KB Cells, Measured after 72 Hours of Exposure.
The percentage of inhibition of cell growth with respect to the cells receiving the same quantity of DMSO is outlined in the table below.

[8] = molecular target: T1, androgenic receptors (Homo sapiens, UniProt P10275); assay: Affinity test for androgenic receptors, inhibition of bonding of radioactive marked testosterone; assay type: binding; details: 10^−5 M, greater than 50% considered significant, read-out: % of inhibition (average of the two measurements)
T1 sequence (P10275 1-920): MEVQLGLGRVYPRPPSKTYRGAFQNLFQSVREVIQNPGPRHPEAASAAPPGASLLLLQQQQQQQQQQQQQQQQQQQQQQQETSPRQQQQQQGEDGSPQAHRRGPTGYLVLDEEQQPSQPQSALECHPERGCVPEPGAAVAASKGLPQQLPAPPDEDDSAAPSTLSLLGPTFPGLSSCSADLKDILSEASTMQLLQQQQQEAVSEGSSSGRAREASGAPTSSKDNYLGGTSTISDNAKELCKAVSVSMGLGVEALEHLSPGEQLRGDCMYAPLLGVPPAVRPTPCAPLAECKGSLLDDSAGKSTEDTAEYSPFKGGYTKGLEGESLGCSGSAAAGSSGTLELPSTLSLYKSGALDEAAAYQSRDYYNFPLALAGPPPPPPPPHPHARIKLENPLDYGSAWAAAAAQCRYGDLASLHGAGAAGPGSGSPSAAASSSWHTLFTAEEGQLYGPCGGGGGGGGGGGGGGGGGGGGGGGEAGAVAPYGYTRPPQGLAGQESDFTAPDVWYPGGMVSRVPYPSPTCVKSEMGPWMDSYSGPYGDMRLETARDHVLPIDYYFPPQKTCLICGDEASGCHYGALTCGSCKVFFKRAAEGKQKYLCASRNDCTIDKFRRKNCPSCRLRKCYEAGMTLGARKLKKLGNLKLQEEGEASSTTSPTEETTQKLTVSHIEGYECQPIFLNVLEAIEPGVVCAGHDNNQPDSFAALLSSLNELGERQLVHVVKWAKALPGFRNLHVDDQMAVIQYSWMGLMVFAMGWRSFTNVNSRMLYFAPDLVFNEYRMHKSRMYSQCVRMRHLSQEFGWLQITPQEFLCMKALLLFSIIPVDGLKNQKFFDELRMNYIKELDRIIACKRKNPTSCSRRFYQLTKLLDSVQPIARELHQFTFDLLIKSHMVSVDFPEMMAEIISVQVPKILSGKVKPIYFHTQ

[9] = test system: S. aureus strains presenting high levels of resistance; assay: Bacterial growth on S. aureus strains presenting high levels of resistance; assay type: cell-based, Staphylococcus aureus; design: key to Effects (0 < 1 < 2 < 3): 0 = no effect; 1 = pure only; 2 = several concs; 3 = strong at each; key to Δ DO: change in optical density measured at 600 nm; details: for Effects (0 < 1 < 2 < 3): molecules at 1, 0.5 and 0.1 mg/ml, triclosan at 0.1 mg/ml
Experimental: as §1, §2, §5

- inhibition at 10 µM [8]: 3.1%
Compound: COc1cc(O)c(Br)c(Cl)c1F [sr7615]
- Effect level, E. coli [1]: 3
- Effect level, K. pneumoniae [2]: 2
- Effect level [3]: 3
- Δ DO ([4]; E. coli Strain 1, 0.1 mg/ml): 0.047
- Δ DO ([4]; E. coli Strain 1, 0.5 mg/ml): 0.777
- Δ DO ([4]; E. coli Strain 1, 1 mg/ml): 0.896
- Effects (0 < 1 < 2 < 3) ([4]; E. coli Strain 1): 2
- Δ DO ([4]; E. coli Strain 2, 0.1 mg/ml): 0.080
- Δ DO ([4]; E. coli Strain 2, 0.5 mg/ml): 0.886
- Δ DO ([4]; E. coli Strain 2, 1 mg/ml): 1.082
- Effects (0 < 1 < 2 < 3) ([4]; E. coli Strain 2): 2
- Δ DO ([4]; E. coli Strain 3, 0.1 mg/ml): 0.029
- Δ DO ([4]; E. coli Strain 3, 0.5 mg/ml): 0.526
- Δ DO ([4]; E. coli Strain 3, 1 mg/ml): 0.882
- Effects (0 < 1 < 2 < 3) ([4]; E. coli Strain 3): 2
- Δ DO ([4]; E. coli Strain 4, 0.1 mg/ml): 0.253
- Δ DO ([4]; E. coli Strain 4, 0.5 mg/ml): 0.809
- Δ DO ([4]; E. coli Strain 4, 1 mg/ml): 0.945
- Effects (0 < 1 < 2 < 3) ([4]; E. coli Strain 4): 3
- Effect level, S. maltophila [5]: 2
- Effect level, S. zooepidemicus [6]: 3
- inhibition at 10 µM ([7]; 10^−5 M): 0%
- inhibition at 1 µM ([7]; 10^−6 M): 0%
- Δ DO ([9]; S. aureus Strain 1, 0.1 mg/ml): 0.250
- Δ DO ([9]; S. aureus Strain 1, 0.5 mg/ml): 0.434
- Δ DO ([9]; S. aureus Strain 1, 1 mg/ml): 0.428
- Effects (0 < 1 < 2 < 3) ([9]; S. aureus Strain 1): 3
- Δ DO ([9]; S. aureus Strain 2, 0.1 mg/ml): 0.308
- Δ DO ([9]; S. aureus Strain 2, 0.5 mg/ml): 0.412
- Δ DO ([9]; S. aureus Strain 2, 1 mg/ml): 0.382
- Effects (0 < 1 < 2 < 3) ([9]; S. aureus Strain 2): 3
- Δ DO ([9]; S. aureus Strain 3, 0.1 mg/ml): 0.310
- Δ DO ([9]; S. aureus Strain 3, 0.5 mg/ml): 0.482
- Δ DO ([9]; S. aureus Strain 3, 1 mg/ml): 0.445
- Effects (0 < 1 < 2 < 3) ([9]; S. aureus Strain 3): 3
- Δ DO ([9]; S. aureus Strain 4, 0.1 mg/ml): 0.351
- Δ DO ([9]; S. aureus Strain 4, 0.5 mg/ml): 0.450
- Δ DO ([9]; S. aureus Strain 4, 1 mg/ml): 0.418
- Effects (0 < 1 < 2 < 3) ([9]; S. aureus Strain 4): 3
